Test results published in US20240116994A1, “Peptides And Use Thereof For Diagnosing And Treating Antiphospholipid Syndrome” (UNIVERSITE DE GENEVE, priority 2021, published 2024).
Where no end group is shown, it is not given here.

Legend:
aPL produced by mice = test: ELISA of IgG anti-IIa-8.0-biot-2x in serum of lupus-prone mice; assay type: binding; conditions: serum of apoe−/−.Nba2.Yaa mice on HCD (FIG. 3A)
Text: B6.Nba2. Yaa mice were generated as described.^8 The Apoe^−/− null mutation was introduced in B6.Nba2.Yaa mice by breeding. Eleven-week old Apoe^−/− C57B1/6 and Apoe^−/−Nba2.Yaa mice were subjected to 11 weeks of high cholesterol diet (HCD) (20.1% fat, 1.25% cholesterol, Research Diets, Inc., New Brunswick, NJ), as a model of advanced atherosclerosis. The treatments and atherosclerosis protocols were well-tolerated by the mice, and no adverse events (such as weight loss and signs of systemic toxicity) were reported. At sacrifice, haematological parameters were routinely measured. Animals were euthanized by exsanguination after anesthesia with 4% isoflurane. All breeding and experimental protocols and procedures were reviewed and approved by the Institutional Animal Care and Use Committee of the Geneva University School of Medicine.
Determination of aPL by ELISA—MaxiSorp™ 96 well plates (Nunc) or Streptavidin plate (Thermofisher) were coated with 10 μg/ml recombinant domains of β2GP1, peptides or biotinylated-peptide prior to incubation with aPLA. Secondary anti-human antibodies conjugated to IR800CW (Rockland) or HRP were used. Protein- or peptide-bound antibodies were detected and quantified by the Odyssey system (Li-Cor Biosciences) or absorbance in optical densities (OD) was determined at 405 nm (molecular Devices™ Filtermax). […]

[1] = system: aPL (pool from APS patients); test: Determination of aPL by ELISA on coated peptides / biotinylated peptides (custom immunoassay); assay type: binding, Human
Protocol: Determination of aPL by ELISA—MaxiSorp™ 96 well plates (Nunc) or Streptavidin plate (Thermofisher) were coated with 10 μg/ml recombinant domains of β2GP1, peptides or biotinylated-peptide prior to incubation with aPLA. Secondary anti-human antibodies conjugated to IR800CW (Rockland) or HRP were used. Protein- or peptide-bound antibodies were detected and quantified by the Odyssey system (Li-Cor Biosciences) or absorbance in optical densities (OD) was determined at 405 nm (molecular Devices™ Filtermax).
The de Groot's research group has pointed at the importance of hydrophobic character of the plate during coating of R39-R43 epitope. In order to abrogate of the plate-dependent aPL binding, the Ia-1 and Ib-1 peptides as well as the R39-R43 with a biotin at their N-terminal were synthetized and coated a streptavidin plate. In this configuration, the different peptides are flag oriented in the space preventing any interaction with the plate. It was thus observed that the flag-type orientation of R39-R43-biot leads to 8.52×more interaction with aPL while they show 9.63×more binding for Ib-1-biot presenting the same position. […] The surface plasmon resonance (SPR) technique is used to determine the relative avidity of aPL for R39-R43-biot and Ib-1-biot. The interaction between aPL and immobilized R39-R43-biot or Ib-1-biot is monitored by flowing various concentrations of aPL over a R39-R43-biot- or Ib-1-biot-coated chip surface (FIG. 1C). Through SPR experiments, it appears that aPL avidity for Ib-1-biot presents a resonance unit (RU) of 51.49 at 1/1,000 of dilution and a RU of 27.61 at 1/10,000 of dilution while, at the same dilution, it present a RU of 27.36 and a RU of 17.99 with R39-R43-biot, respectively (FIG. 1C). However, at higher concentrations, the peptides seems to show no differences in the interactions with aPL. […] Considering that IgG valency, it was decided to generate a dimeric Ib-1-biot peptide (Ib-1-biot-2x). This new polypeptide carries thus two optimized epitopes which have the opportunity to interact with two Fab fragment present on aPL. […] At higher concentration, i.e dilution of 1/100, the avidity for dimeric peptide is 28×more than for the monomeric (FIG. 1D).
It was performed a peptide substitution scan of Ib-1-biot VSRGGMRKKKKPLTG (SEQ ID NO: 6) carrying the optimized epitope Ib-1-biot and based on an exchange of the underlined amino acid positions with the 20 main amino acids. The resulting peptide microarrays contained 140 different peptides. It was observed that the peptide substitution of the position n° 1, 2, 12 and 15 have significant influences on the ability to interact with aPL from patients 1, 2, 3, 4 and, in particular, form the plasma pool. Indeed, the substitution of the position 1, 12 or 15 by an Arginine (R) or a Lysine (K) increases the avidity of the peptide for all aPL from patients. […] In this context, the enhancement relative to Ib-1.0-biot-2x of identified peptides was evaluated (FIG. 2A). […] However, streptavidin being known to produce unspecific binding, it was used the ratio between aPL and a pool of human plasma as control (B/B0) (FIG. 2B, upper panel). This representation therefore allows to distinguish the real levels of interactions. It was then performed a dilution assay from dilution of 1/100 to 1/1,200,000 and it was observed relevant differences between the different identified peptides. By comparison of area under the curve (AUC), it was possible to detect the most prone-interacting peptide with aPL. Thus, the peptide IIa-8.0-biot-2x obtained the higher AUC (FIG. 2B, bottom panel). To formally quantify the ability of aPL to interact with IIa-8.0-biot-2x, it was monitored by flowing various concentrations of aPL over a IIa-8.0-biot-2x-coated chip surface (FIG. 2C). […] In FIG. 2C, bottom panel, it can be appreciated more precisely the improvement of the quality of interactions. […]

## IIa-8.0-biot-2x: dimeric biotinylated IIa-8.0 peptide; also used associated with streptavidin magnetic beads (RSRGGMRKRKKPLTGRSRGGMRKRKKPLTG; also: dimeric peptide (two IIa-8.0 copies), biotinylated, site not given here)
aPL produced by mice
  interaction with aPL produced by mice: able to interact also with aPL produced by mice
[1]; ELISA, four dilutions of aPL pool (FIG. 2A)
  ability to interact with aPL, enhancement relative to Ib-1.0-biot-2x: significantly increased with at least three of the four dilutions
[1]; dilution 1/100 to 1/1,200,000, aPL pool / pool of healthy plasma (FIG. 2B)
  area under the curve (AUC) of dilution assay, B/B0: higher AUC
